Experimental data from US9717748B2, “Compositions and methods for treating an infection” (CMPD LICENSING, LLC, priority 2015, dated 2017).

Legend:
Enterobacter sakazakii = test: Expected efficacy of antibiotic agents; details: Gram: neg
Corynebacterium jeikeium = test: Expected efficacy of antibiotic agents; details: Gram: pos
Pseudomonas aeruginosa = test: Expected efficacy of antibiotic agents; details: Gram: neg
Klebsiella pneumoniae = test: Expected efficacy of antibiotic agents; details: Gram: neg
Shigella flexneri = test: Expected efficacy of antibiotic agents; details: Gram: neg
[1] = tested on: Acinetobacter calcoaceticus; test: Expected efficacy of antibiotic agents; details: Gram: neg
Enterococcus faecium = test: Expected efficacy of antibiotic agents; details: Gram: pos
Shigella dysenteriae = test: Expected efficacy of antibiotic agents; details: Gram: neg
[2] = tested on: Corynebacterium urealyticum; test: Expected efficacy of antibiotic agents; details: Gram: pos
Providencia stuartii = test: Expected efficacy of antibiotic agents; details: Gram: neg
Salmonella typhi = test: Expected efficacy of antibiotic agents; details: Gram: neg
[3] = tested on: Klebsiella (Calymmato-bacterium) granulomatis; test: Expected efficacy of antibiotic agents; details: Gram: neg
Clostridium difficile = test: Expected efficacy of antibiotic agents; details: Gram: anaer
Citrobacter freundii = test: Expected efficacy of antibiotic agents; details: Gram: neg
Peptostreptococcus = test: Expected efficacy of antibiotic agents; details: Gram: pos
Yersinia pestis = details: Gram: neg
Chlamydia pneumoniae = test: Expected efficacy of antibiotic agents; details: Gram: n/a
Enterobacter cloacae = test: Expected efficacy of antibiotic agents; details: Gram: neg
Legionella pneumophila = details: Gram: neg
[4] = tested on: Methicillin resistant staphaureus (MRSA); test: Expected efficacy of antibiotic agents; details: Gram: pos
Acinetobacter baumannii = test: Expected efficacy of antibiotic agents; details: Gram: neg
Francisella tularensis = details: Gram: neg
Haemophilus ducreyi = test: Expected efficacy of antibiotic agents; details: Gram: neg
Acinetobacter lwoffii = test: Expected efficacy of antibiotic agents; details: Gram: neg
Providencia rettgeri = test: Expected efficacy of antibiotic agents; details: Gram: neg
Bordetella pertussis = test: Expected efficacy of antibiotic agents; details: Gram: neg
Enterococcus faecalis = test: Expected efficacy of antibiotic agents; details: Gram: pos
[5] = tested on: Viridans group streptococci; test: Expected efficacy of antibiotic agents; details: Gram: pos
Chlamydia trachomatis = test: Expected efficacy of antibiotic agents; details: Gram: n/a
[6] = tested on: Staphylococcus aureus (MSSA); test: Expected efficacy of antibiotic agents; details: Gram: pos
Bacteroides fragilis = test: Expected efficacy of antibiotic agents; details: Gram: anaer
Moraxella catarrhalis = test: Expected efficacy of antibiotic agents; details: Gram: neg
Streptococcus agalactiae = test: Expected efficacy of antibiotic agents; details: Gram: pos
Mycoplasma pneumoniae = test: Expected efficacy of antibiotic agents; details: Gram: n/a
Vibrio cholerae = test: Expected efficacy of antibiotic agents; details: Gram: neg
Campylobacter jejuni = test: Expected efficacy of antibiotic agents; details: Gram: neg
[7] = tested on: Staphylococcus epidermidis; test: Expected efficacy of antibiotic agents; details: Gram: pos
Rickettsiae = details: Gram: neg
Diphtheroids = test: Expected efficacy of antibiotic agents; details: Gram: pos
[8] = tested on: Haemophilus parainfluenzae; test: Expected efficacy of antibiotic agents; details: Gram: neg
Shigella sonnei = test: Expected efficacy of antibiotic agents; details: Gram: neg
Neisseria gonorrhoeae = test: Expected efficacy of antibiotic agents; details: Gram: neg
Chlamydia psittaci = details: Gram: n/a
Streptococcus pyogenes = test: Expected efficacy of antibiotic agents; details: Gram: pos
Proteus mirabilis = test: Expected efficacy of antibiotic agents; details: Gram: neg
Citrobacter diversus = test: Expected efficacy of antibiotic agents; details: Gram: neg
Proteus vulgaris = test: Expected efficacy of antibiotic agents; details: Gram: neg
Brucella species = details: Gram: neg
Morganella morganii = test: Expected efficacy of antibiotic agents; details: Gram: neg
Serratia marcescens = test: Expected efficacy of antibiotic agents; details: Gram: neg
Aspergillus fumigatus = test: Expected efficacy of antifungal agents
Aspergillus flavus = test: Expected efficacy of antifungal agents
Cryptococcus neoformans = test: Expected efficacy of antifungal agents
Klebsiella oxytoca = test: Expected efficacy of antibiotic agents; details: Gram: neg
Pseudomonas fluorescens = test: Expected efficacy of antibiotic agents; details: Gram: neg
Enterobacter aerogenes = test: Expected efficacy of antibiotic agents; details: Gram: neg
Escherichia coli = test: Expected efficacy of antibiotic agents; details: Gram: neg
Clostridium perfringens = details: Gram: anaer

CO/N=C(\C(=O)N[C@@H]1C(=O)N2C(C(=O)O)=C(CSc3nc(=O)c(=O)[nH]n3C)CS[C@H]12)c1csc(N)n1 [Ceftriaxone]
no: Expected efficacy against Corynebacterium jeikeium (Corynebacterium jeikeium) | Expected efficacy against Pseudomonas aeruginosa (Pseudomonas aeruginosa) | Expected efficacy against Acinetobacter calcoaceticus [1] | Expected efficacy against Enterococcus faecium (Enterococcus faecium) | Expected efficacy against Corynebacterium urealyticum [2] | Expected efficacy against Clostridium difficile (Clostridium difficile) | Expected efficacy against Yersinia pestis (Yersinia pestis) | Expected efficacy against Chlamydia pneumoniae (Chlamydia pneumoniae) | Expected efficacy against Legionella pneumophila (Legionella pneumophila) | Expected efficacy against Methicillin resistant staphaureus (MRSA) [4] | Expected efficacy against Acinetobacter baumannii (Acinetobacter baumannii) | Expected efficacy against Francisella tularensis (Francisella tularensis) | Expected efficacy against Acinetobacter lwoffii (Acinetobacter lwoffii) | Expected efficacy against Bordetella pertussis (Bordetella pertussis) | Expected efficacy against Enterococcus faecalis (Enterococcus faecalis) | Expected efficacy against Chlamydia trachomatis (Chlamydia trachomatis) | Expected efficacy against Mycoplasma pneumoniae (Mycoplasma pneumoniae) | Expected efficacy against Vibrio cholerae (Vibrio cholerae) | Expected efficacy against Campylobacter jejuni (Campylobacter jejuni) | Expected efficacy against Rickettsiae (Rickettsiae) | Expected efficacy against Diphtheroids (Diphtheroids) | Expected efficacy against Chlamydia psittaci (Chlamydia psittaci)
yes: Expected efficacy against Enterobacter sakazakii (Enterobacter sakazakii) | Expected efficacy against Klebsiella pneumoniae (Klebsiella pneumoniae) | Expected efficacy against Shigella flexneri (Shigella flexneri) | Expected efficacy against Shigella dysenteriae (Shigella dysenteriae) | Expected efficacy against Providencia stuartii (Providencia stuartii) | Expected efficacy against Salmonella typhi (Salmonella typhi) | Expected efficacy against Klebsiella (Calymmato-bacterium) granulomatis [3] | Expected efficacy against Citrobacter freundii (Citrobacter freundii) | Expected efficacy against Peptostreptococcus (Peptostreptococcus) | Expected efficacy against Enterobacter cloacae (Enterobacter cloacae) | Expected efficacy against Haemophilus ducreyi (Haemophilus ducreyi) | Expected efficacy against Providencia rettgeri (Providencia rettgeri) | Expected efficacy against Viridans group streptococci [5] | Expected efficacy against Staphylococcus aureus (MSSA) [6] | Expected efficacy against Bacteroides fragilis (Bacteroides fragilis) | Expected efficacy against Moraxella catarrhalis (Moraxella catarrhalis) | Expected efficacy against Streptococcus agalactiae (Streptococcus agalactiae) | Expected efficacy against Staphylococcus epidermidis [7] | Expected efficacy against Haemophilus parainfluenzae [8] | Expected efficacy against Shigella sonnei (Shigella sonnei) | Expected efficacy against Neisseria gonorrhoeae (Neisseria gonorrhoeae) | Expected efficacy against Streptococcus pyogenes (Streptococcus pyogenes) | Expected efficacy against Proteus mirabilis (Proteus mirabilis)

O=C(O)c1cn(C2CC2)c2cc(N3CCNCC3)c(F)cc2c1=O [Ciprofloxacin]
yes: Expected efficacy against Pseudomonas aeruginosa (Pseudomonas aeruginosa) | Expected efficacy against Klebsiella pneumoniae (Klebsiella pneumoniae) | Expected efficacy against Shigella flexneri (Shigella flexneri) | Expected efficacy against Shigella dysenteriae (Shigella dysenteriae) | Expected efficacy against Providencia stuartii (Providencia stuartii) | Expected efficacy against Salmonella typhi (Salmonella typhi) | Expected efficacy against Citrobacter freundii (Citrobacter freundii) | Expected efficacy against Yersinia pestis (Yersinia pestis) | Expected efficacy against Chlamydia pneumoniae (Chlamydia pneumoniae) | Expected efficacy against Legionella pneumophila (Legionella pneumophila) | Expected efficacy against Francisella tularensis (Francisella tularensis) | Expected efficacy against Providencia rettgeri (Providencia rettgeri) | Expected efficacy against Moraxella catarrhalis (Moraxella catarrhalis) | Expected efficacy against Campylobacter jejuni (Campylobacter jejuni) | Expected efficacy against Staphylococcus epidermidis [7] | Expected efficacy against Haemophilus parainfluenzae [8] | Expected efficacy against Shigella sonnei (Shigella sonnei) | Expected efficacy against Neisseria gonorrhoeae (Neisseria gonorrhoeae) | Expected efficacy against Proteus mirabilis (Proteus mirabilis)
no: Expected efficacy against Corynebacterium jeikeium (Corynebacterium jeikeium) | Expected efficacy against Enterococcus faecium (Enterococcus faecium) | Expected efficacy against Methicillin resistant staphaureus (MRSA) [4] | Expected efficacy against Staphylococcus aureus (MSSA) [6] | Expected efficacy against Bacteroides fragilis (Bacteroides fragilis)

C[C@H]1c2cccc(O)c2C(=O)C2=C(O)[C@]3(O)C(=O)C(C(N)=O)=C(O)[C@@H](N(C)C)[C@@H]3[C@@H](O)[C@@H]21 [Doxycyline]
yes: Expected efficacy against Klebsiella (Calymmato-bacterium) granulomatis [3] | Expected efficacy against Yersinia pestis (Yersinia pestis) | Expected efficacy against Chlamydia pneumoniae (Chlamydia pneumoniae) | Expected efficacy against Legionella pneumophila (Legionella pneumophila) | Expected efficacy against Francisella tularensis (Francisella tularensis) | Expected efficacy against Haemophilus ducreyi (Haemophilus ducreyi) | Expected efficacy against Brucella species (Brucella species) | Expected efficacy against Chlamydia trachomatis (Chlamydia trachomatis) | Expected efficacy against Moraxella catarrhalis (Moraxella catarrhalis) | Expected efficacy against Campylobacter jejuni (Campylobacter jejuni) | Expected efficacy against Staphylococcus epidermidis [7] | Expected efficacy against Haemophilus parainfluenzae [8] | Expected efficacy against Chlamydia psittaci (Chlamydia psittaci)
no: Expected efficacy against Pseudomonas aeruginosa (Pseudomonas aeruginosa) | Expected efficacy against Citrobacter diversus (Citrobacter diversus) | Expected efficacy against Enterococcus faecium (Enterococcus faecium) | Expected efficacy against Providencia stuartii (Providencia stuartii) | Expected efficacy against Proteus vulgaris (Proteus vulgaris) | Expected efficacy against Citrobacter freundii (Citrobacter freundii) | Expected efficacy against Acinetobacter baumannii (Acinetobacter baumannii) | Expected efficacy against Acinetobacter lwoffii (Acinetobacter lwoffii) | Expected efficacy against Providencia rettgeri (Providencia rettgeri) | Expected efficacy against Enterococcus faecalis (Enterococcus faecalis) | Expected efficacy against Morganella morganii (Morganella morganii) | Expected efficacy against Serratia marcescens (Serratia marcescens) | Expected efficacy against Proteus mirabilis (Proteus mirabilis)

OC(Cn1cncn1)(Cn1cncn1)c1ccc(F)cc1F [Fluconazole]
yes: Expected efficacy against Coccidioides immitis (Coccidioides immitis) | Expected efficacy against Aspergillus fumigatus (Aspergillus fumigatus) | Expected efficacy against Aspergillus flavus (Aspergillus flavus) | Expected efficacy against Cryptococcus neoformans (Cryptococcus neoformans)

Azithromycin
no: Expected efficacy against Enterobacter sakazakii (Enterobacter sakazakii) | Expected efficacy against Corynebacterium jeikeium (Corynebacterium jeikeium) | Expected efficacy against Pseudomonas aeruginosa (Pseudomonas aeruginosa) | Expected efficacy against Klebsiella pneumoniae (Klebsiella pneumoniae) | Expected efficacy against Citrobacter diversus (Citrobacter diversus) | Expected efficacy against Acinetobacter calcoaceticus [1] | Expected efficacy against Enterococcus faecium (Enterococcus faecium) | Expected efficacy against Providencia stuartii (Providencia stuartii) | Expected efficacy against Klebsiella (Calymmato-bacterium) granulomatis [3] | Expected efficacy against Clostridium difficile (Clostridium difficile) | Expected efficacy against Proteus vulgaris (Proteus vulgaris) | Expected efficacy against Citrobacter freundii (Citrobacter freundii) | Expected efficacy against Enterobacter cloacae (Enterobacter cloacae) | Expected efficacy against Methicillin resistant staphaureus (MRSA) [4] | Expected efficacy against Acinetobacter baumannii (Acinetobacter baumannii) | Expected efficacy against Francisella tularensis (Francisella tularensis) | Expected efficacy against Acinetobacter lwoffii (Acinetobacter lwoffii) | Expected efficacy against Providencia rettgeri (Providencia rettgeri) | Expected efficacy against Klebsiella oxytoca (Klebsiella oxytoca) | Expected efficacy against Pseudomonas fluorescens (Pseudomonas fluorescens) | Expected efficacy against Enterococcus faecalis (Enterococcus faecalis) | Expected efficacy against Brucella species (Brucella species) | Expected efficacy against Morganella morganii (Morganella morganii) | Expected efficacy against Bacteroides fragilis (Bacteroides fragilis) | Expected efficacy against Enterobacter aerogenes (Enterobacter aerogenes) | Expected efficacy against Serratia marcescens (Serratia marcescens) | Expected efficacy against Escherichia coli (Escherichia coli) | Expected efficacy against Clostridium perfringens (Clostridium perfringens) | Expected efficacy against Proteus mirabilis (Proteus mirabilis)
yes: Expected efficacy against Chlamydia pneumoniae (Chlamydia pneumoniae) | Expected efficacy against Legionella pneumophila (Legionella pneumophila) | Expected efficacy against Chlamydia trachomatis (Chlamydia trachomatis) | Expected efficacy against Staphylococcus aureus (MSSA) [6] | Expected efficacy against Moraxella catarrhalis (Moraxella catarrhalis) | Expected efficacy against Streptococcus agalactiae (Streptococcus agalactiae) | Expected efficacy against Mycoplasma pneumoniae (Mycoplasma pneumoniae) | Expected efficacy against Campylobacter jejuni (Campylobacter jejuni) | Expected efficacy against Staphylococcus epidermidis [7] | Expected efficacy against Chlamydia psittaci (Chlamydia psittaci) | Expected efficacy against Streptococcus pyogenes (Streptococcus pyogenes)
